Assay results taken from patent US6906100B2, “Compounds and compositions derived from olives and methods of the use thereof” (Lavipharm S.A., priority 2002, dated 2005).

Columns and labels:
Jurkat cells = assay: comet assay (single cell gel electrophoresis): protection of DNA of intact cells exposed to H2O2; format: cell-based; conditions: H2O2 generated by glucose oxidase; for protective activity on cells against oxidative stress (decrease of induced DNA damage): 10 min exposure
Description: In the analysis of the antioxidant activity of the extracts I, II, III and IV, as well as, of the pure Compounds 1-9, a method based on measuring the relative protection of DNA of intact cells was performed. This was done with the use of Jurkat cell cultures (a cell line of T-lymph-cells), which were grown in RPMI-1640 enriched with fetal bovine calf serum (10%), penicillin, streptomycin and glutamine. The cells were incubated with the extracts or the purified compounds in the presence of glucose oxidase (60 ng/100 ml) used for the generation of H2O2. After exposure of the cells to H2O2 for 10 min, the degree of DNA damage was evaluated using a specialized method, “single cell gel electrophoresis”, also known as the “comet assay”. The comet assay method is described in the following references: 1. Barbouti A. et al., “DNA Damage And Apoptosis In Hydrogen Peroxide-Exposed Jurkat Cells: Bolus Addition Versus Continuous Generation Of H2O2,” Free Radical Biology and Medicine, 33(5): 691-702, Elsevier Press (2002); as well as Panagiotidis M. et al. (1999) Free Radical Biology and Medicine, 26(5-6): 548-556; Doulias P-T. et al. (2001) Free Radical Biology and Medicine, 30(6): 679-685; Tselepis A. et al. (2001) Free Radical Biology and Medicine, 30(12): 1357-1364; and Barbouti A. et al. (2001) Free Radical Biology and Medicine, 31(4): 490-498 5.
Jurkat cells—a cell line of lymphocytic origin—were exposed to continuously generated hydrogen peroxide, H2O2 and the effects of this treatment on cellular DNA was evaluated according to the references above. […]
The graphic results of the “comet assay” for the waste water extract (IV) and tyrosol (Compound 4), 2-(5-ethylidene-2-oxo-tetrahydropyran-4-yl) acetic acid (from the compound class of lactones or Compound 6) and hydroxytyrosol (Compound 7) are depicted below in FIGS. 3-6, respectively. […] The values are expressed as mean ±SD (n=3).

[1] = antioxidant ability by usual chemical methods (e.g. DPPH)

Row | Structure (SMILES) | dose dependence of protection (Jurkat cells) | protective activity on cells against oxidative stress (decrease of induced DNA damage) (Jurkat cells) | antioxidant ability [1]
1 | CC=C1COC(=O)CC1CC(=O)O (stereo not shown) [2-(5-ethylidene-2-oxo-tetrahydropyran-4-yl) acetic acid] | dose-dependent protection | strong protective activity | does not show any antioxidant ability
2 | OCCc1ccc(O)cc1 [tyrosol, Tyrosol] |  | not | 
